Experimental data reported in patent US10864251B2, “Peptides of syndecan-1 for inhibiting angiogenesis” (Wisconsin Alumni Research Foundation, priority 2006, dated 2020).
Like-named read-outs stand apart in the source and are kept apart here. Where no end group is shown, it is not given here.

Legend:
[1] = tested on: MDA-MB-231 human mammary carcinoma cells; format: cell-based
Method: FIGS. 5A-5F—Inhibition of MDA-MB-231 human mammary carcinoma cell attachment and spreading on VN by synstatin82-130. MDA-MB-231 human mammary carcinoma cells, which rely on the αvβ3 integrin for attachment and spreading on VN, were plated on 10 μg/ml VN for 2 hr in the absence of peptide (FIG. 5A) or in the presence of 0.1 (FIG. 5B), 0.3 (FIG. 5C) or 1 μM (FIG. 5D) synstatin82-130. The cells were fixed and stained as in FIG. 2.
FIG. 17—Human SSTN peptides inhibit αvβ3-mediated cell attachment and spreading on vitronectin. MDA-MB-231 human mammary carcinoma cells were allowed to attach and spread on either vitronectin (VN) or fibronectin (FN) during a 2 hr assay in the presence of 0, 0.1, 0.3, 0.5, 1.0 or 30 μM SSTN peptide. […] The two peptides tested are derived either from amino acids 88-121 (hSSTN 88-121) or 89-120 (hSSTN 89-120) of the human Sdc1 sequence. Adhesion to VN, but not FN, is mediated by the αvβ3 integrin on these cells and is disrupted by the human SSTN peptides.
(§1) Cell adhesion and spreading assays were performed with modification to the previous procedures (Lebakken and Rapraeger, 1996. Briefly, human plasma vitronectin or fibronectin at 10-30 μg/ml were applied to nitrocellulose-coated ten well slides (Erie Scientific) and incubated for 1-2 h at 37° C. Slides were blocked with 1.0% heat-denatured bovine serum albumin for a minimum of 30 min at 37° C. Cells were detached from the substratum using 5 mM EDTA in Tris-buffered saline and resuspended in HEPES-buffered culture medium containing 0.1% heat-denatured BSA. Cells were plated at a density of 15,000 cells per well and allowed to attach and spread for 2 h prior to fixation in 4% paraformaldehyde in CMF-PBS. For fluorescence microscopy, fixed cells were permeabilized in 0.2% Triton X-100, labeled with rhodamine-conjugated phalloidin and analyzed using fluorescence microscopy. For testing inhibition by recombinant mScd-1ED and synstatin82-130, cells were pre-incubated 10 min before plating in the presence of the inhibitor. […] LM609 was used as a specific block to αvβ3 and P1F6 was used as a specific blocker of αvβ5.
The inventors have tested the adhesion and spreading of MDA-MB-231 mammary carcinoma cells on VN in the presence or absence of synstatin82-130. These cells rely specifically on the active αvβ3 integrin for this adhesion (Beauvais et al., 2004). Recombinant Sdc1 ectodomain (SLED) has been shown by the inventors previously to block spreading of these cells with an IC50 of about 3-10 μM (Beauvais et al., 2004). […] Thus, synstatin82-130 is a specific and effective inhibitor of αvβ3 integrin activation.

[2] = Active SSTN in blood detected on dot blots; format: in vivo; details: mouse
Method: Lastly, SSTN was tested in the in vivo corneal angiogenesis assay. Polyhydroxyethylmethylacrylate pellets (0.25 μL) containing 67 ng FGF-2 and sucralfate as a slow release agent were implanted into the avascular mouse cornea. After seven days, fluorescent dextran was injected suborbitally to highlight the vascular system and the mice were sacrificed. […] To supply the inhibitor in a more quantifiable and physiological manner, recombinant mS1ED or SSTN were delivered systemically via Alzet osmotic pumps implanted subcutaneously on the backs of the animals. […] To correlate this with the active concentration in the plasma, the inventors took advantage of rabbit polyclonal antibodies generated against mS1ED, which detect active SSTN on dot blots. […] Using this method to detect active SSTN in the blood collected from animals after 1 week of SSTN treatment, SSTN is shown to be in the blood at 125-150 nM when present at 10 μM in the osmotic pump.

[3] = tested on: human dermal microvascular endothelial cells (HMEC-1); format: cell-based
Method: FIGS. 6A-6H—Inhibition of B82L fibroblast and HMEC-1 cell attachment and spreading on VN by synstatin82-130. B82L fibroblasts, which rely on the αvβ5 integrin for attachment to VN, and human dermal microvascular endothelial cells, which rely on both the αvβ3 and αvβ5 integrins for attachment to VN, were plated in the absence of peptide (FIGS. 6A, 6E) or in the presence of 0.1 (FIGS. 6B, 6F), 0.3 (FIGS. 6C, 6G) or 1 μM (FIGS. 6D, 6H) synstatin82-130 for 2 hr and processed as described in FIG. 2.
FIGS. 10A-10D—Dependence of HMEC cell attachment and spreading on integrin activation by Sdc1 and its inhibition by SSTN. (FIG. 10A) HMECs were plated for 2 hr either on Sdc1-specific antibody B-B4 to engage Sdc1 or on VN (10 μg/ml coating concentration) to engage the αvβ3 and αvβ5 integrins. Blocking antibodies LM609 (10 μg/ml, specific for αvβ3) and P1F6 (10 μg/ml, specific for αvβ5), SSTN (0.5 μM) or recombinant mouse Sdc1 ectodomain (mS1ED, 5 μM) were added. The ligand mimetic antibody WOW1 was used to detect activated αvβ3 integrin on cells plated on B-B4. (FIG. 10B) HMECs were treated with siRNA oligo specific for human Sdc1 for 48 hr prior to plating on VN. Sdc1 expression was quantified by flow cytometry using human Sdc1-specific mAb B-B4 or a control mouse IgG. (FIG. 10C-10D) The percentage of cell attaching or attaching and spreading was quantified for HMECs, HAEC and MAECs plated on VN for 24 hr in the presence of mS1ED or SSTN, or after siRNA silencing of Sdc1 expression in the presence of mAb LM609 to block αvβ3 integrin, P1F6 to block αvβ5 integrin, or both antibodies.
FIG. 14—Activity of SSTN peptides. A diagram of SSTN82-130 used in our experiments is shown. The gray letters designate amino acids that are identical or highly conserved across species (mouse, human, rat, hamster). Shorter peptides have been tested using HMEC-1 endothelial cells for inhibition of […] mediated cell attachment and spreading in comparison to SSTN82-130.
as §1
Finally, the inventors have examined HMEC-1 cells, which are immortalized human dermal microvascular endothelial cells. Microvascular endothelial cells are regarded as being the main source of endothelial cells that carry out angiogenesis in vivo. The HMEC-1 cells grown in serum-containing culture medium express Sdc1 (as noted earlier) and also express active αvβ3 and αvβ5 integrins. […]

With “SNTETAFTSVLPAGEKPEEGEPVLHVEAEPGFTARDKEKEVTTRPRETV [synstatin82-130]” the IC50 ([1]; 2 h) was roughly 100 nM, the level at time molar at 168 h ([2]; blood, sc, after 1 week, 10 μM in the osmotic pump, read-out: concentration in the blood) was 125 to 150 nM and the “clearance rate in the plasma” value ([2]; suggested from blood level) was 10 to 13 h. For the same molecule, the IC50 ([3]; 6 h) was roughly 100 nM.

B1: S1ED: recombinant mouse Sdc1 ectodomain (amino acids 18-251), expressed in bacteria as GST fusion or 6×His-tagged protein (protein)
chain: QPALPQIVAVNVPPEDQDGSGDDSDNFSGSGTGALPDTLSRQTPSTWKDVWLLTATPTAPEPTSSNTETAFTSVLPAGEKPEEGEPVLHVEAEPGFTARDKEKEVTTRPRETVQLPITQRASTVRVTTAQAAVTSHPHGGMQPGLHETSAPTAPGQPDHQPPRVEGGGTSVIKEVVEDGTANQLPAGEGSGEQDFTFETSGENTAVAAVEPGLRNQPPVDEGATGASQSLLDRK
modifications: left off: a dimerising Fc or GST
notes: recombinant mouse Sdc1 ectodomain (amino acids 18-251), expressed in bacteria as GST fusion or 6×His-tagged protein
For B1, the “complete block of cell attachment on VN” value ([1]; highest concentration tested, 50 μM) was “not seen”, the IC50 ([3]; HMEC-1, αvβ3 and αvβ5 integrin-dependent, read-out: IC50, spreading on VN) was 3000 to 10000 nM and the “reduction of cell spreading” value ([3]; HMECs on vitronectin, 1-3 μM) was 80-90%. The spreading on vitronectin ([3]; HMECs, 5.0 μM) was “blocks spreading as effectively as the combined antibody treatment”.
